The record followed here is patent US11427548B2 (Arvinas Operations, Inc., priority 2015, dated 2022).

The target of the test is T1, Androgen Receptor (Homo sapiens, UniProt P10275).
T1 construct: endogenous in cells; host or cells: VCaP cells
T1 sequence (P10275 1-920): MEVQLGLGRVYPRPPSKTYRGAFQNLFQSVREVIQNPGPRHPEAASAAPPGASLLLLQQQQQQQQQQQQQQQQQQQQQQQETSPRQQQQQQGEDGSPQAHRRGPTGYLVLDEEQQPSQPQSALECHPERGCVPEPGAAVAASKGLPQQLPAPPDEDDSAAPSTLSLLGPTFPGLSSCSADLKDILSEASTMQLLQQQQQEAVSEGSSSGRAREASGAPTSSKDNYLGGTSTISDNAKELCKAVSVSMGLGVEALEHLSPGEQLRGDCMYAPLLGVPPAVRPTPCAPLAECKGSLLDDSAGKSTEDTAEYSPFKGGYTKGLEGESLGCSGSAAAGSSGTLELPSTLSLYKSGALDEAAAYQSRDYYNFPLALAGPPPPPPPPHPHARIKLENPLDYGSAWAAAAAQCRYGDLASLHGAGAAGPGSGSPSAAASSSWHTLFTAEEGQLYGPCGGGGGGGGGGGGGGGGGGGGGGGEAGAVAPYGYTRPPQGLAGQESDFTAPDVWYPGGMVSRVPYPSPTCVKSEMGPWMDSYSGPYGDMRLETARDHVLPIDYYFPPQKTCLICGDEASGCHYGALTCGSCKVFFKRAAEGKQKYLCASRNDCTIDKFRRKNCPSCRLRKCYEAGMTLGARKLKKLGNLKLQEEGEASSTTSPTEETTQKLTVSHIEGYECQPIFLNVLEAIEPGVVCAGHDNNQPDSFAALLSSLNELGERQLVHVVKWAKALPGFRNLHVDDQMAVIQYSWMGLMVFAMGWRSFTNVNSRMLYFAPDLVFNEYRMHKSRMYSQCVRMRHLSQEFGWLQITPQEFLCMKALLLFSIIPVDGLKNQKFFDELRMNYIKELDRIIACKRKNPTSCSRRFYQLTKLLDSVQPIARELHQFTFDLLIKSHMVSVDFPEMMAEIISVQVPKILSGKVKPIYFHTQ
As to the kind of experiment: Androgen Receptor ELISA assay (PathScan AR ELISA) in VCaP cells: AR degradation, Dmax and DC50. The test is classed as cell-based. In a few lines:
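VCaP cells in phenol red-free RPMI with 5% charcoal-stripped FBS were grown at least 3 days, then given compound as 7 half-log doses in 0.1% DMSO with 0.1 nM R1881 for 24 h. Lysates went into a sandwich AR ELISA with TMB read at 450 nm.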
For orientation: ELISA stands for enzyme-linked immunosorbent assay.

Setting [1] is: VCaP cells; Table 34; read-out: VCaP DC50.
[2] abbreviates: VCaP, VCaP cells; Table 34; read-out: VCaP Dmax (%).
[3] abbreviates: read-out: VCaP DC50; VCaP cells; Table 34.
The mark [4] stands for this setting: read-out: VCaP DC50; VCaP cells; Table 35.
[5] abbreviates: VCaP cells; Table 35; read-out: VCaP DC50.
Where [6] appears, read: VCaP, VCaP cells; Table 35; read-out: VCaP Dmax (%).

Like-named read-outs stand apart in the source and are kept apart here. Where only a bound is given, the exact number is not on record here.

In general, DC50 refers to the midpoint of the concentration-degradation curve. For orientation: Dmax means the largest share of the target that was removed. As to `Cc1ncoc1-c1ccc([C@H](C)NC(=O)[C@@H]2C[C@@H](O)CN2C(=O)[C@@H](NC(=O)COCCCCNc2ccc(C(=O)N[C@H]3C(C)(C)[C@H](Oc4ccc(C#N)c(Cl)c4)C3(C)C)cc2)C(C)(C)C)cc1` [Example 411], the half-maximal degradation concentration (DC50) under setting [1] was less than 0.05 µM. For the same compound, under setting [2], the Dmax was greater than 71%. The like results for `CC(C)(C)[C@H](NC(=O)COCCCCNc1ccc(C(=O)N[C@H]2C(C)(C)[C@H](Oc3ccc(C#N)c(Cl)c3)C2(C)C)cc1)C(=O)N1C[C@H](O)C[C@H]1C(=O)NCc1ccc(-c2scnc2C2CC2)cc1` [Example 412] were, in that order, less than 0.05 µM and 51 to 70%.

In the case of `Cc1ncsc1-c1ccc(CNC(=O)[C@@H]2C[C@@H](O)CN2C(=O)[C@@H](NC(=O)COc2ccc(OCC#Cc3ccc(N4C(=S)N(c5ccc(C#N)c(C(F)(F)F)c5)C(=O)C4(C)C)cc3)cc2)C(C)(C)C)cc1` [Example 413], for the setting “VCaP, read-out: VCaP Dmax (%)”, the greatest degradation seen (Dmax) lay in the range of 51 to 70%. For the same compound, the DC50 under setting [3] is less than 0.05 µM. The like results for `CCOC(=O)c1ncsc1-c1ccc(CNC(=O)[C@@H]2C[C@@H](O)CN2C(=O)[C@@H](NC(=O)COCCCCOc2ccc(-c3ccc(N4C(=S)N(c5ccc(C#N)c(C(F)(F)F)c5)C(=O)C4(C)C)cc3)cc2)C(C)(C)C)cc1` [Example 414] were, in that order, less than 25% and less than 0.05 µM.

As for `CCc1ncsc1-c1ccc(CNC(=O)[C@@H]2C[C@@H](O)CN2C(=O)[C@@H](NC(=O)COCCCCNc2ccc(C(=O)N[C@H]3C(C)(C)[C@H](Oc4ccc(C#N)c(Cl)c4)C3(C)C)cc2)C(C)(C)C)cc1` [Example 415], under setting [1], the DC50 is less than 0.05 µM. The maximal degradation (Dmax) under setting [2] was greater than 71%. Consider `Cc1ncsc1-c1ccc(CNC(=O)[C@@H]2C[C@@H](O)CN2C(=O)[C@@H](NC(=O)COCCCCNc2ccc(C(=O)N[C@H]3C(C)(C)[C@H](Oc4ccc(C#N)c(Cl)c4)C3(C)C)cn2)C(C)(C)C)cc1` [Example 416], for which the DC50 under setting [1] lay within 0.051 to 0.5 µM. For the same compound, the Dmax under setting [2] lay in the range of 26 to 50%. In the same order, the values of `Cc1ncsc1-c1ccc(CNC(=O)[C@@H]2C[C@@H](O)CN2C(=O)[C@@H](NC(=O)COc2ccccc2CCCOc2ccc(C(=O)N[C@H]3C(C)(C)[C@H](Oc4ccc(C#N)c(Cl)c4)C3(C)C)cc2)C(C)(C)C)cc1` [Example 417] are less than 0.05 µM and greater than 71%. With `Cc1ncsc1-c1ccc([C@H](C)NC(=O)[C@@H]2C[C@@H](O)CN2C(=O)[C@@H](C(C)C)n2cc(OCCCOCCC(O)CCOc3ccc(N4C(=S)N(c5ccc(C#N)c(C(F)(F)F)c5)C(=O)C4(C)C)cc3)cn2)cc1` (stereo partly shown) [Example 418], the maximal degradation (Dmax) (VCaP, read-out: VCaP Dmax (%)) is 51 to 70%. In addition, the DC50 under setting [4] is less than 0.05 µM. For `Cc1ncsc1-c1ccc([C@H](C)NC(=O)[C@@H]2C[C@@H](O)CN2C(=O)[C@H](C(C)C)n2cc(OCCCOCCC(O)CCOc3ccc(N4C(=S)N(c5ccc(C#N)c(C(F)(F)F)c5)C(=O)C4(C)C)cc3)cn2)cc1` (stereo partly shown) [Example 419], for the setting “VCaP, read-out: VCaP Dmax (%)”, the maximal degradation (Dmax) lay within 26 to 50%. Also, the half-maximal degradation concentration (DC50) under setting [4] was less than 0.05 µM. In the case of `Cc1ncsc1-c1ccc(CNC(=O)[C@@H]2C[C@@H](O)CN2C(=O)[C@@H](NC(=O)COCC2CCN(c3ccc(-c4ccc(N5C(=S)N(c6ccc(C#N)c(C(F)(F)F)c6)C(=O)C5(C)C)cc4)cn3)CC2)C(C)(C)C)cc1` [Example 420], for the setting “VCaP, read-out: VCaP Dmax (%)”, the Dmax was in the range of 51 to 70%. Also, under setting [4], the half-maximal degradation concentration (DC50) lay within 0.051 to 0.5 µM. For the compound `Cc1ncsc1-c1ccc([C@H](C)NC(=O)[C@@H]2C[C@@H](O)CN2C(=O)[C@@H](NC(=O)c2cc3ccc(OC4CN(c5ncc(C(=O)N[C@H]6C(C)(C)[C@H](Oc7ccc(C#N)c(Cl)c7)C6(C)C)cn5)C4)cc3o2)C(C)(C)C)cc1` [Example 422], the DC50 under setting [5] is less than 0.05 µM. In addition, the Dmax under setting [6] was greater than 71%. As to `Cc1ncsc1-c1ccc([C@H](C)NC(=O)[C@@H]2C[C@@H](O)CN2C(=O)[C@@H](C(C)C)n2cc(Oc3cccc(OCCCCCOc4ccc(N5C(=S)N(c6ccc(C#N)c(C(F)(F)F)c6)C(=O)C5(C)C)cc4)c3)cn2)nc1` [Example 424], for the setting “VCaP, read-out: VCaP Dmax (%)”, the greatest degradation seen (Dmax) was less than 25%. The DC50 under setting [4] was greater than 0.501 µM.

As to `Cc1nccn1-c1ccc([C@H](C)NC(=O)[C@@H]2C[C@@H](O)CN2C(=O)[C@@H](NC(=O)COCCNc2ccc(-c3ccc(C(=O)N[C@H]4C(C)(C)[C@H](Oc5ccc(C#N)c(Cl)c5)C4(C)C)cc3)cn2)C(C)(C)C)cc1` [Example 425], the half-maximal degradation concentration (DC50) under setting [5] is less than 0.05 µM. Besides, the Dmax under setting [6] was greater than 71%. On to `Cc1ncsc1-c1ccc([C@H](C)NC(=O)[C@@H]2C[C@@H](O)CN2C(=O)[C@H](C(C)C)n2cc(Oc3cccc(OCCCCCOc4ccc(N5C(=S)N(c6ccc(C#N)c(C(F)(F)F)c6)C(=O)C5(C)C)cc4)c3)cn2)nc1` [Example 426], for which the maximal degradation (Dmax) (VCaP, read-out: VCaP Dmax (%)) was less than 25%. For the same compound, under setting [4], the DC50 is greater than 0.501 µM. In the same order, the values of `Cc1ncsc1-c1ccc([C@H](C)NC(=O)[C@@H]2C[C@@H](O)CN2C(=O)[C@@H](C(C)C)n2cc(OCCCOCCCCCOc3ccc(N4C(=S)N(c5ccc(C#N)c(C(F)(F)F)c5)C(=O)C4(C)C)cc3)cn2)nc1` [Example 427] are less than 25% and greater than 0.501 µM. Regarding `Cc1ncsc1-c1ccc([C@H](C)NC(=O)[C@@H]2C[C@@H](O)CN2C(=O)[C@H](C(C)C)n2cc(OCCCOCCCCCOc3ccc(N4C(=S)N(c5ccc(C#N)c(C(F)(F)F)c5)C(=O)C4(C)C)cc3)cn2)nc1` [Example 428], the maximal degradation (Dmax) (VCaP, read-out: VCaP Dmax (%)) was less than 25%. In addition, the DC50 under setting [4] was greater than 0.501 µM. As for `Cc1ncsc1-c1ccc([C@H](C)NC(=O)[C@@H]2C[C@@H](O)CN2C(=O)[C@@H](NC(=O)COc2ccc(OC3CCN(c4ccc(N5C(=S)N(c6ccc(C#N)c(C(F)(F)F)c6)C(=O)C5(C)C)cn4)CC3)nc2)C(C)(C)C)cc1` [Example 429], the greatest degradation seen (Dmax) (VCaP, read-out: VCaP Dmax (%)) was in the range of 26 to 50%. Besides, the half-maximal degradation concentration (DC50) under setting [4] is greater than 0.501 µM. On to `Cc1ncsc1-c1ccc([C@H](C)NC(=O)[C@@H]2C[C@@H](O)CN2C(=O)[C@@H](NC(=O)COc2ccc(OC3CCN(c4ccc(N5C(=S)N(c6ccc(C#N)c(C(F)(F)F)c6)C(=O)C5(C)C)cc4)CC3)nc2)C(C)(C)C)cc1` [Example 430], for which the maximal degradation (Dmax) (VCaP, read-out: VCaP Dmax (%)) is less than 25%. The DC50 under setting [4] was greater than 0.501 µM. For `Cc1ncsc1-c1ccc([C@H](C)NC(=O)[C@@H]2C[C@@H](O)CN2C(=O)[C@@H](NC(=O)CNC(=O)c2ccc(Oc3ccc(C(=O)N[C@H]4C(C)(C)[C@H](Oc5ccc(C#N)c(Cl)c5)C4(C)C)cn3)cc2)C(C)(C)C)nc1` [Example 432], the DC50 under setting [5] was greater than 0.501 µM. Moreover, the Dmax under setting [6] was less than 25%.

As to `Cc1ncsc1-c1ccc([C@H](C)NC(=O)[C@@H]2C[C@@H](O)CN2C(=O)[C@@H](NC(=O)COc2ccc(OC3CCC(Oc4ccc(C(=O)N[C@H]5C(C)(C)[C@H](Oc6ccc(C#N)c(Cl)c6)C5(C)C)cc4)CC3)nc2)C(C)(C)C)cc1` (stereo partly shown) [Example 433], the DC50 under setting [5] was less than 0.05 µM. The greatest degradation seen (Dmax) under setting [6] lay within 51 to 70%. Regarding `Cc1ncsc1-c1ccc([C@H](C)NC(=O)[C@@H]2C[C@@H](O)CN2C(=O)[C@@H](C(C)C)n2cc(OCCCOCCCCCOc3ccc(N4C(=S)N(c5ccc(C#N)c(C(F)(F)F)c5)C(=O)C4(C)C)cc3)cn2)cc1` [Example 434], the 50% degradation concentration (DC50) under setting [4] is greater than 0.501 µM. Same read-out and setting: for `Cc1ncsc1-c1ccc([C@H](C)NC(=O)[C@@H]2C[C@@H](O)CN2C(=O)[C@H](C(C)C)n2cc(OCCCOCCCCCOc3ccc(N4C(=S)N(c5ccc(C#N)c(C(F)(F)F)c5)C(=O)C4(C)C)cc3)cn2)cc1` [Example 435] the value was greater than 0.501 µM. As for `Cc1ncsc1-c1ccc([C@H](C)NC(=O)[C@@H]2C[C@@H](O)CN2C(=O)[C@@H](C(C)C)n2cc(OCC3CCN(c4ccc(C(=O)N[C@H]5C(C)(C)[C@H](Oc6ccc(C#N)c(Cl)c6)C5(C)C)cc4)CC3)cn2)cc1` [Example 436], the DC50 under setting [5] is greater than 0.501 µM. Further, the greatest degradation seen (Dmax) under setting [6] is 51 to 70%. Regarding `Cc1ncsc1-c1ccc([C@H](C)NC(=O)[C@@H]2C[C@@H](O)CN2C(=O)[C@H](C(C)C)n2cc(OCC3CCN(c4ccc(C(=O)N[C@H]5C(C)(C)[C@H](Oc6ccc(C#N)c(Cl)c6)C5(C)C)cc4)CC3)cn2)cc1` [Example 437], under setting [5], the half-maximal degradation concentration (DC50) is greater than 0.501 µM. For `Cc1ncsc1-c1ccc([C@H](C)NC(=O)[C@@H]2C[C@@H](O)CN2C(=O)[C@@H](NC(=O)COCCN2CCN(c3ccc(C(=O)N[C@H]4C(C)(C)[C@H](Oc5ccc(C#N)c(Cl)c5)C4(C)C)cc3)CC2)C(C)(C)C)cc1` [Example 438], under setting [5], the DC50 was less than 0.05 µM. For the same compound, the Dmax under setting [6] was greater than 71%. In the same order, the values of `Cc1ncsc1-c1ccc([C@H](C)NC(=O)[C@@H]2C[C@@H](O)CN2C(=O)[C@@H](NC(=O)COCC2CCN(c3ccc(C(=O)N[C@H]4C(C)(C)[C@H](Oc5ccc(C#N)c(Cl)c5)C4(C)C)cn3)CC2)C(C)(C)C)cc1` [Example 442] are less than 0.05 µM and greater than 71%.
